How the values were obtained:
pDgNIN:GUS = test: GUS staining of pDgNIN:GUS hairy roots after treatment with LCO / chitin oligomer signaling molecules; type: in vivo, Datisca glomerata; conditions: 24 hours post treatment with 10^−7M
Description: (§1) For GUS staining the harvested roots were thoroughly cleaned in sterile water and scored under the stereo-fluorescent microscope so that only the transformed roots were harvested for the staining purpose. The roots were fixed in 90% acetone on ice for 1 hour. Subsequently, the acetone was replaced with 50 mM phosphate buffer pH7.2 (Sigma) and the roots were washed twice to remove any acetone. The roots were then moved to the staining solution containing 0.1M Phosphate buffer, 0.25 mM K3[Fe(CN)6](potassium ferricyanide), 0.25 mM K4[Fe(CN)6](potassium ferrocyanide), 0.25% (v/v) Triton X-100 and 1 mM 5-bromo-4-chloro-3-indolyl beta-D-glucuronide (X-Gluc, Thermo). The samples were vacuum infiltrated for 30 minutes and incubated at 37° C. overnight. After staining the tissues were cleared of all the staining solution and stored in 50% ethanol for imaging under the stereomicroscope DX105 F (Leica). For ruthenium red staining the staining solution was prepared (0.1% ruthenium red in sterile water) and a few microliters are added over each section and subsequently washed using sterile deionized water. For toluidine blue staining, 0.1% toluidine blue staining solution was prepared in deionized water and a few microliters are added over each section and subsequently washed using sterile deionized water. […]

pDgNIN2:GUS = test: GUS staining of pDgNIN2:GUS hairy roots after treatment with LCO / chitin oligomer signaling molecules; type: in vivo, Datisca glomerata; conditions: 24 hours post treatment with 10^−7M
Description: as §1

DgNIN = test: Relative expression of DgNIN in D. glomerata roots (real-time PCR, normalized to DgActin); type: in vivo, Datisca glomerata; conditions: 10 days post treatment with 100^−6M NAA
Description: (§2) Germinated seedlings (approx. 4 weeks after germination) are moved to ½MS plates supplemented with 0.5 g/L MES (Merck), 100^−6M NAA, 0.8% agarose (Sigma) and adjusted to pH 5.8. The seedlings were maintained for 10 days under a 16 h-day and 8 h-night cycle at 22-24° C. before harvesting for RNA extraction.
(§3) Each plant root system consisting of transformed root or nodules was harvested and each individual root system formed a biological replicate; 3 or more technical replicates were prepared from each root system having a 100-150 mg sample. RNA was extracted using a modified extraction buffer containing 2% SDS (v/v), 100 mM Tris-HCl pH 8.0, 1.4M NaCl, and 20 mM EDTA. The samples were crushed with tungsten-carbide beads (Qiagen) in a mechanical pulverize (Spex Geno/Grinder®) in the presence of 12 μl/ml β-mercaptoethanol (Sigma) and 50 mg PVPP (Sigma). The powder was resuspended with the extraction buffer followed by treatment with chloroform:iso-amyl alcohol (24:1)(Melford) and chloroform (Sigma). […] The extracted RNA was quantified using a NanoDrop® (Thermo) and then treated for DNase digestion using TURBO DNA-free™ kit (Thermo) using the manufacturer protocol. […] Quantitative real-time polymerase chain reaction (qRT-PCR) was performed in technical replicates using SyGreen mix Lo-ROX (PCR Biosystems) using QuantStudio™ 7 Flex system (ABI) in a total volume of 10 μl. […]

DgNIN2 = test: Relative expression of DgNIN2 in D. glomerata roots (real-time PCR, normalized to DgActin); type: in vivo, Datisca glomerata; conditions: 10 days post treatment with 100^−6M NAA
Description: as §2, §3

MtNIN = test: Relative expression of MtNIN in M. truncatula roots after auxin analogue treatment; type: in vivo, Medicago truncatula; conditions: exogenous treatment 0.1, 1 or 10 μM for 16 hours and 2 days
Description: Germinated seedlings (approx. 4 days after germination) are moved to FPmod plates supplemented with 0.1 μM, 1 μM, or 10 μM NAA, 0.8% agarose (Sigma), and adjusted to pH 7. The seedlings were maintained for 16 hours and 2 days under 16 h-day and 8 h-night cycle at 24-22° C. before harvesting them for RNA extraction.
Total RNA was reverse-transcribed using SuperScript™ III Reverse Transcriptase (Life Technologies) and anchored dT17 primers as described in the manufacturer's protocol. About 1 μl of cDNA was used to set up real-time RT-qPCR in a […] reaction system with 2×SYBR™ Green PCR master mixes (PCR biosystems) using an ABI Proflex7 Real-Time PCR system. PCR program: 1 cycle at 50° C. for 2 min, 1 cycle at 95° C. for 5 min, and 40 cycles at 95° C. for 30 s and 60° C. for 30s. Expression data were obtained from 3 independent biological repetitions. Calculations were done using the cycle threshold method using MtEF1a, DgActin and FvHistoneH4 as the endogenous control.

pDR5:GUS [1] = test: pDR5:GUS auxin signaling readout in stable F. vesca lines; type: in vivo, Fragaria vesca; set-up: dose or concentration left out as unconfirmed
Description: Tissue culture plants growing in SMR (approximately 4 weeks after transfer) were moved to ½ Hoagland's media plates supplemented with 100^−6M NAA, 0.8% agarose (Sigma). The plants were maintained for 4 weeks under a 16 h-day and 8 h-night cycle at 22-24° C. before harvesting for phenotyping and RNA extraction.
as §1, with “(Leica).” for “(Leica). For ruthenium red staining the staining solution was prepared (0.1% ruthenium red in sterile water) and a few microliters are added over each section and subsequently washed using sterile deionized water. For toluidine blue staining, 0.1% toluidine blue staining solution was prepared in deionized water and a few microliters are added over each section and subsequently washed using sterile deionized water.”

pDR5:GUS [2] = test: pDR5:GUS expression in barley STARTS lines post auxin treatment; type: in vivo, Hordeum vulgare; conditions: 100 μM NAA, 3 weeks post treatment
Description: as §1

pDR5:NLS-eGFP = pDR5:NLS-eGFP expression in barley STARTS lines post auxin treatment; type: in vivo, Hordeum vulgare; conditions: 50 μM 2,4D
Description: Tissue culture STARTS plants were grown in rooting media for approximately 4 weeks after transfer, and barley seeds were grown on water-agar plates for seven days after germination, after which seedlings were transferred to 1% Hoagland's media plates. […] The root portion of the plates was covered with aluminum foil. The plants were maintained under a 16 h-day and 8 h-night cycle at 24-22° C. Tissue was harvested four weeks after treatment for phenotyping and RNA extraction.
Auxin treatment was reported to induce nodule like-structures (NLS) in rice (Hiltenbrand et al., 2016). Since it was established in the strawberry system that expressing pDR5:DryasNIN could form NLS with some proto-nodule identity under the influence of auxin, lines in barley (Hordeum vulgare var Golden promise) were raised with the same cassette. To establish the efficacy of the pDR5 promoter in barely system, some transgenics were also raised with pDR5:GUS and pDR5:NLS-eGFP (FIGS. 23A-23F, 24A-24J). In comparison to overexpressing pOsUbi:GUS, pDR5:GUS expression under control condition was very weak (FIGS. 23B-23C).

Structure (SMILES)	GUS staining of pDgNIN:GUS roots (pDgNIN:GUS)	GUS staining of pDgNIN2:GUS roots (pDgNIN2:GUS)	activation of MtNIN expression (MtNIN)	also measured
CC(=O)N[C@H]1[C@H](O[C@H]2[C@H](O)[C@@H](NC(C)=O)C(O)O[C@@H]2CO)O[C@H](CO)[C@@H](O[C@@H]2O[C@H](CO)[C@@H](O[C@@H]3O[C@H](CO)[C@@H](O)[C@H](O)[C@H]3NC(C)=O)[C@H](O)[C@H]2NC(C)=O)[C@@H]1O (stereo partly shown) [C04]	intense staining in the root vasculature and near the root tip	did not show staining	–	–
CC(=O)N[C@H]1[C@H](O[C@H]2[C@H](O)[C@@H](NC(C)=O)[C@H](O[C@H]3[C@H](O)[C@@H](NC(C)=O)[C@H](O[C@H]4[C@H](O)[C@@H](NC(C)=O)C(O)O[C@@H]4CO)O[C@@H]3CO)O[C@@H]2CO)O[C@H](CO)[C@@H](O[C@@H]2O[C@H](CO)[C@@H](O[C@@H]3O[C@H](CO)[C@@H](O[C@@H]4O[C@H](CO)[C@@H](O[C@@H]5O[C@H](CO)[C@@H](O)[C@H](O)[C@H]5NC(C)=O)[C@H](O)[C@H]4NC(C)=O)[C@H](O)[C@H]3NC(C)=O)[C@H](O)[C@H]2NC(C)=O)[C@@H]1O (stereo partly shown) [C08]	no staining	failed to induce any NIN expression	–	–
O=C(O)Cc1cccc2ccccc12 [NAA, 1-naphthalene acetic acid]	–	–	differential activation of MtNIN expression	increase in the expression of DgNIN as compared to the control treated root samples (DgNIN): ~4 fold; increase in the expression of DgNIN2 as compared to the control treated root samples (DgNIN2): ~12 fold; pDR5:GUS staining pattern (pDR5:GUS [1]; +N+P+NAA): non-specific expression throughout the root system; pDR5:GUS staining pattern (pDR5:GUS [1]; −N+P+NAA (N limiting condition)): localized GUS staining in the bump like structures; pDR5:GUS staining (pDR5:GUS [2]): GUS staining was visible in the bump-like structures
O=C(O)CCCc1c[nH]c2ccccc12 [IBA, Indole-3-butyric acid]	–	–	differential activation of MtNIN expression	–
O=C(O)COc1ccc(Cl)cc1Cl [2,4D, 2,4-Dichlorophenoxyacetic acid]	–	–	differential activation of MtNIN expression	pDR5:NLS-eGFP signal (pDR5:NLS-eGFP): eGFP localization could be seen in the nucleus
